Results: patent US20100099676A1 (SHIONOGI & CO., LTD., priority 2006, published 2010)

Legend:
Test in all cases: Enzyme inhibiting activity of MMPs, fluorogenic peptide substrate
Type in all cases: biochemical
[1] = target: T1, MMP-2 (Homo sapiens, UniProt P08253); conditions: substrate MOCAc-Pro-Leu-Gly-Leu-A2Pr(DNP)-Ala-Arg-NH2, fluorescent intensity
T1 construct: purchased Calbiochem (EMD/MERCK Biosciences)
T1 sequence (P08253 110-660): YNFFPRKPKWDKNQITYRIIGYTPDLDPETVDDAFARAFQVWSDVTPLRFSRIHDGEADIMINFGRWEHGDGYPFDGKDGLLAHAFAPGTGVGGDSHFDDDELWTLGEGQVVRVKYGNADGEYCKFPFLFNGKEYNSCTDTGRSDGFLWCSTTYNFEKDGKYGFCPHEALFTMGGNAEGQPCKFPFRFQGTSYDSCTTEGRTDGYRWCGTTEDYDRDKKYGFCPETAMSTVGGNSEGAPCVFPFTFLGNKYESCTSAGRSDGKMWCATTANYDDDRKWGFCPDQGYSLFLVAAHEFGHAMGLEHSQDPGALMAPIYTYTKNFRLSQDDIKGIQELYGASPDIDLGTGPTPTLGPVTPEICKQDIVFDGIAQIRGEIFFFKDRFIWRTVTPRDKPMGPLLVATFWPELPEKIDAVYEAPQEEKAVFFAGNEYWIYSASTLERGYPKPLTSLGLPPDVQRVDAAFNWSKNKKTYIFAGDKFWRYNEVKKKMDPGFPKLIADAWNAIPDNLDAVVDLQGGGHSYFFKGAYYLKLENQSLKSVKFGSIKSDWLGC
Summary of the method: (§1)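 Recombinant human enzymes with the fluorogenic substrate MOCAc-Pro-Leu-Gly-Leu-A2Pr(DNP)-Ala-Arg-NH2. Fluorescence was read for enzyme+substrate±inhibitor and substrate±inhibitor blanks.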

[2] = target: T2, MMP-9 (Homo sapiens, UniProt P14780); conditions: substrate MOCAc-Pro-Leu-Gly-Leu-A2Pr(DNP)-Ala-Arg-NH2, fluorescent intensity
T2 construct: purchased Calbiochem (EMD/MERCK Biosciences)
T2 sequence (P14780 94-707): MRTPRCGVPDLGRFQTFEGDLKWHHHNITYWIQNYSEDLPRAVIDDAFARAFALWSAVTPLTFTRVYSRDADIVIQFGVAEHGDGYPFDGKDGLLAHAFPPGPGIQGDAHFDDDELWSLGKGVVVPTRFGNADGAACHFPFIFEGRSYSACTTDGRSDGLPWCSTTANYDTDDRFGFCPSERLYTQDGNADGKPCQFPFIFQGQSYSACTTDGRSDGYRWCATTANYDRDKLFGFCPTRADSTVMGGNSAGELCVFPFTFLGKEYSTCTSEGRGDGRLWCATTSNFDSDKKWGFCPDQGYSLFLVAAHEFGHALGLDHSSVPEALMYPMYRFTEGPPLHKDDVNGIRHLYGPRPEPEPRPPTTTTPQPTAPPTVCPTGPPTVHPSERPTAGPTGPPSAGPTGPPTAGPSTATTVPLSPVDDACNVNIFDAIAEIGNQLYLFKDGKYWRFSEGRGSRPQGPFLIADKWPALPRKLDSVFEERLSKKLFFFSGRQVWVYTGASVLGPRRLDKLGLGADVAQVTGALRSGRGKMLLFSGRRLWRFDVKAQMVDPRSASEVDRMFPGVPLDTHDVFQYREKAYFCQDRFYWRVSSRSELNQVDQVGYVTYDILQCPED
Summary of the method: as §1

[3] = target: T3, MMP-13 (Homo sapiens, UniProt P45452); conditions: APMA-activated proenzyme; substrate MOCAc-Pro-Leu-Gly-Leu-A2Pr(DNP)-Ala-Arg-NH2, fluorescent intensity; read-out: IC50 MMP-13
T3 construct: purchased Calbiochem (EMD/MERCK Biosciences)
Summary of the method: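 Pro-MMP-13 was activated with 1 mM APMA at 37° C for 2 h in 50 mM Tris-HCl pH 7.6, 0.3 M NaCl, 10 mM CaCl2, 0.005% Brij35. Activity was read by fluorescence using MOCAc-Pro-Leu-Gly-Leu-A2Pr(DNP)-Ala-Arg-NH2 substrate, with enzyme and inhibitor blank corrections. IC50 is the concentration giving 50% inhibition.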

`CC(C)COc1ccc(C#Cc2ccc(N3CCN(S(=O)(=O)N[C@@H](C(=O)O)C(C)C)CC3)cc2)cc1C(=O)NCc1ccncc1` [Compound V-5, (R)-2-[4-(4-{4-isobutoxy3-[(pyridin-4-ylmethyl)carbamoyl]-phenylethynyl}-phenyl)-piperazine-1-sulfonylamino]-3-methylbutanoic acid] gave an IC50 [1] of 1 to 10 µM, an IC50 [2] greater than 10 µM and an IC50 [3] of 0.018 µM.

In the case of `CC(C)[C@@H](NS(=O)(=O)N1CCN(c2ccc(C#Cc3ccnc(C(=O)NCc4cccc(CNC(=O)OC(C)(C)C)c4)c3)cc2)CC1)C(=O)O` [III-224, (R)-2-[4-(4-{2-[3-(tert-butoxycarbonylaminomethyl)-benzylcarbamoyl]-pyridin-4-ylethynyl}-phenyl)-piperazine-1-sulfonylamino]-3-methylbutanoic acid], the IC50 [1] is reported as 1 to 10 µM, the IC50 [2] is reported as greater than 10 µM and the IC50 [3] is reported as 0.016 µM.

`CC(=O)Nc1cccc(-c2csc(C#Cc3ccc(N4CCN(S(=O)(=O)N[C@@H](C(=O)O)C(C)C)CC4)cc3)n2)c1` [Compound V-86, (R)-2-(4-{4-[4-(3-acetylaminophenyl)-thiazol-2-ylethynyl]-phenyl}-piperazine-1-sulfonylamino)-3-methylbutanoic acid] gave an IC50 [1] of 1 to 10 µM, an IC50 [2] greater than 10 µM and an IC50 [3] of 0.012 µM.

For `COc1ccc(Cn2ccc3ccc(C#Cc4ccc(N5CCN(S(=O)(=O)N[C@@H](C(=O)O)C(C)C)CC5)cc4)cc3c2=O)cc1` [III-167, (R)-2-(4-{4-[2-(4-methoxybenzyl)-1-oxo-1,2-dihydroisoquinolin-7-ylethynyl]-phenyl}-piperazine-1-sulfonylamino)-3-methylbutanoic acid], the IC50 [1] was greater than 10 µM, the IC50 [2] was greater than 10 µM and the IC50 [3] was 0.014 µM.

For `CC(C)[C@@H](NS(=O)(=O)N1CCN(c2ccc(C#Cc3ccc4ccn(Cc5ccccc5)c(=O)c4c3)cc2)CC1)C(=O)O` [III-27, (R)-2-{4-[4-(2-benzyl1-oxo-1,2-dihydroisoquinolin-7-ylethynyl)-phenyl]-piperazine-1-sulfonylamino}-3-methylbutanoic acid], the IC50 [1] was greater than 10 µM, the IC50 [2] was greater than 10 µM and the IC50 [3] was 0.019 µM.

For `CC(C)[C@@H](NS(=O)(=O)N1CCN(c2ccc(C#Cc3ccnc(C(=O)NCc4ccc(Cl)c(Cl)c4)c3)cc2)CC1)C(=O)O` [III-156, (R)-2-(4-{4-[2-(3,4-dichlorobenzylcarbamoyl)-pyridin-4-ylethynyl]-phenyl}-piperazine-1-sulfonylamino)-3-methylbutanoic acid], the IC50 [1] was 1 to 10 µM, the IC50 [2] was greater than 10 µM and the IC50 [3] was 0.01 µM.

Work on `C[C@@H](NS(=O)(=O)N1CCN(c2ccc(C#Cc3ccc4c(c3)c(/C=C/C#N)cn4C)cc2)CC1)C(=O)O` [Compound I-114, (R)-2-(4-{4-[3-((E)-2-cyanovinyl)-1-methyl-1H-indol-5-ylethynyl]-phenyl}-piperazine-1-sulfonylamino)-proponic acid] yielded an IC50 [1] of 1 to 10 µM, an IC50 [2] greater than 10 µM and an IC50 [3] of 0.011 µM.

`CC[C@H](NS(=O)(=O)N1CCN(c2ccc(C#Cc3ccnc(C(=O)NCc4ccc(Cl)cc4)c3)cc2)CC1)C(=O)O` [III-68, (S)-2-(4-{4-[2-(4-chrolobenzylcarbamoyl)-pyridin-4-ylethynyl]-phenyl}-piperazine-1-sulfonylamino)-butanoic acid] was tested, and the IC50 [1] was greater than 10 µM, the IC50 [2] was greater than 10 µM and the IC50 [3] was 0.005 µM.

`CC(C)[C@@H](NS(=O)(=O)N1CCN(c2ccc(C#Cc3ccc4c(c3)c(=O)n(CC#N)c(=O)n4C)cc2)CC1)C(=O)O` [Compound V-68, (R)-2-{4-[4-(3-cyanomethyl-1-methyl-2,4-dioxo-1,2,3,4-tetrahydroquinazolin-6-ylethynyl)-phenyl]-piperazine-1-sulfonylamino}-3-methylbutanoic acid] was tested, and the IC50 [1] was 1 to 10 µM, the IC50 [2] was 1 to 10 µM and the IC50 [3] was 0.005 µM.

Work on `CC(C)[C@@H](NS(=O)(=O)N1CCN(c2ccc(C#Cc3ccnc(C(=O)NCc4ccc(N(C)C)cc4)c3)cc2)CC1)C(=O)O` [III-212, (R)-2-(4-{4-[2-(4-dimethylaminobenzylcarbamoyl)-pyridin-4-ylethynyl]-phenyl}-piperazine-1-sulfonylamino)-3-methylbutanoic acid] yielded an IC50 [1] of 1 to 10 µM, an IC50 [2] greater than 10 µM and an IC50 [3] of 0.004 µM.

`CC(C)[C@@H](NS(=O)(=O)N1CCN(c2ccc(C#Cc3ccc4c(c3)c(=O)n(Cc3ccc(F)cc3)c(=O)n4C)cc2)CC1)C(=O)O` [Compound V-60, (R)-2-(4-{4-[3-(4-fluorobenzyl)-1-methyl-2,4-dioxo-1,2,3,4-tetrahydroquinazolin-6-ylethynyl]-phenyl}-piperazine-1-sulfonylamino)-3-methylbutanoic acid] gave an IC50 [1] greater than 10 µM, an IC50 [2] greater than 10 µM and an IC50 [3] of 0.021 µM.

`CC(C)[C@@H](NS(=O)(=O)N1CCN(c2ccc(C#Cc3ccnc(C(=O)NCc4ccc(S(C)(=O)=O)cc4)c3)cc2)CC1)C(=O)O` [III-206, (R)-2-(4-{4-[2-(4-methanesulfonylbenzylcarbamoyl)-pyridin-4-ylethynyl]-phenyl}-piperazine-1-sulfonylamino)-3-methylbutanoic acid] showed an IC50 [1] of 0.1 to 1 µM, an IC50 [2] greater than 10 µM and an IC50 [3] of 0.001 µM.

Work on `B.CC(C)[C@@H](NS(=O)(=O)N1CCN(c2ccc(C#Cc3ccnc(C(=O)NCc4ccc(CN(C)C)cc4)c3)cc2)CC1)C(=O)O` [III-153, (R)-2-(4-{4-[2-(4-dimethylaminomethylbenzylcarbamoyl)-pyridin-4-ylethynyl]-phenyl}-piperazine-1-sulfonylamino)-3-methylbutanoic acid borane complex] yielded an IC50 [1] of 1 to 10 µM, an IC50 [2] greater than 10 µM and an IC50 [3] of 0.004 µM.

In the case of `CC(C)[C@@H](NS(=O)(=O)N1CCN(c2ccc(C#Cc3ccc4ncn(Cc5ccc(F)cc5)c(=O)c4c3)cc2)CC1)C(=O)O` [Compound V-59, (R)-2-(4-{4-[3-(4-fluorobenzyl)-4-oxo-3,4-dihydroquinazolin-6-ylethynyl]-phenyl}-piperazine-1-sulfonylamino)-3-methylbutanoic acid], the IC50 [1] is reported as 1 to 10 µM, the IC50 [2] is reported as greater than 10 µM and the IC50 [3] is reported as 0.01 µM.

`CC(C)[C@@H](NS(=O)(=O)N1CCN(c2ccc(C#Cc3ccc4ccn(Cc5ccc(S(C)(=O)=O)cc5)c(=O)c4c3)cc2)CC1)C(=O)O` [III-170, (R)-2-(4-{4-[2-(4-methanesulfonylbenzyl)-1-oxo-1,2-dihydroisoquinolin-7-ylethynyl)-phenyl]-piperazine-1-sulfonylamino}-3-methylbutanoic acid] was tested, and the IC50 [1] was 1 to 10 µM, the IC50 [2] was greater than 10 µM and the IC50 [3] was 0.004 µM.

With `CC(C)[C@@H](NS(=O)(=O)N1CCN(c2ccc(C#Cc3ccnc(C(=O)NCc4ccc(SC(F)(F)F)cc4)c3)cc2)CC1)C(=O)O` [III-222, (R)-3-methyl-2-(4-{4-[2-(4-trifluoromethylsulfanylbenzylcarbamoyl)-pyridin-4-ylethynyl]-phenyl}-piperazine-1-sulfonylamino)-butanoic acid] the IC50 [1] was greater than 10 µM, the IC50 [2] was greater than 10 µM and the IC50 [3] was 0.023 µM.

`C[C@@H](NS(=O)(=O)N1CCN(c2ccc(C#Cc3ccc4c(c3)C(c3ccco3)=CCC4)cc2)CC1)C(=O)O` [Compound I-112, (R)-2-{4-[4-(8-furan-2-yl-5-6-dihydronaphthalen-2-ylethynyl)-phenyl]-piperazine-1-sulfonylamino}-proponic acid] was tested, and the IC50 [1] was greater than 10 µM, the IC50 [2] was greater than 10 µM and the IC50 [3] was 0.062 µM.

`CC(C)[C@@H](NS(=O)(=O)N1CCN(c2ccc(C#Cc3ccnc(C(=O)NCc4ccc5c(c4)OCO5)c3)cc2)CC1)C(=O)O` [III-199, (R)-2-[4-(4-{2-[(benzo[1,3]dioxol-5-ylmethyl)-carbamoyl]-pyridin-4-ylethynyl}-phenyl)-piperazine-1-sulfonylamino]-3-methylbutanoic acid] gave an IC50 [1] of 1 to 10 µM, an IC50 [2] greater than 10 µM and an IC50 [3] of 0.004 µM.

`C[C@@H](NS(=O)(=O)N1CCN(c2ccc(C#Cc3ccc4c(c3)/C(=N\OCc3ccccc3)CCO4)cc2)CC1)C(=O)O` [Compound I-113, (R)-2-[4-(4-{4-[(Z)-benzyloxyimino]-chroman-6-ylethynyl}-phenyl)-piperazine-1-sulfonylamino]-proponic acid] was tested, and the IC50 [1] was greater than 10 µM, the IC50 [2] was greater than 10 µM and the IC50 [3] was 0.071 µM.

In the case of `COCCOc1ccc(C#Cc2ccc(N3CCN(S(=O)(=O)N[C@H](C)C(=O)O)CC3)cc2)cc1-c1ncc(CC(=O)NCc2ccccc2)o1` [Compound V-19, (R)-2-(4-{4-[3-[5-(benzylcarbamoylmethyl)-oxazol-2-yl]-4-(2-methoxyethoxy)-phenylethynyl]-phenyl}-piperazine-1-sulfonylamino)-proponic acid], the IC50 [1] is reported as 1 to 10 µM, the IC50 [2] is reported as greater than 10 µM and the IC50 [3] is reported as 0.008 µM.
